{"source": "paper PMC3565832", "about": "(mBio, 2013)", "system": "HSV-1", "experiment": "HSV-1 IE gene expression in HeLa cells", "type": "cell-based", "settings": "50 µM, 5 h pretreatment, HSV-1 0.1 PFU/cell for 2 h", "data": [{"smiles": "C[C@H](NCc1ccc(OCc2cccc(F)c2)cc1)C(N)=O", "note": "[Safinamide, safinamide]", "values": [{"measurement": "inhibition of expression of viral IE (ICP27 and ICP4) genes", "result": "did not show substantial inhibition"}]}]}
